According to patent US10544146B2, “Bicyclic compounds and their use as antibacterial agents and β-lactamase inhibitors” (priority 2011, dated 2020):

Legend:
Type in all cases: cell-based
E. coli JMI 4080 = assay: MIC, antibacterial and synergistic activity; settings: Escherichia coli, JMI4080, E. coli JMI 4080, Tem-10; substance alone
K. pneumo JMI 4088 = assay: MIC, antibacterial and synergistic activity; settings: substance alone
E. coli JMI 10768 = assay: MIC, antibacterial and synergistic activity; settings: E. coli JMI 10768, CTX-M15 (Weak ESBL); substance alone
[1] = system: metallo β-lactamase producing bacteria; assay: MIC in combination with various antibiotics against metallo β-lactamase producing bacteria (Tables 10-12); settings: substance alone
Protocol: (§1) In the Tables 10-12, compounds of the present invention were tested in combination with various antibiotics against metallo β-lactamase producing bacteria.

E. coli JMI 4103 = assay: MIC, antibacterial and synergistic activity; settings: Escherichia coli, JMI4103; E. coli JMI 4103, KPC-2, Tem-1, CMY-Type; substance alone
E. coli JMI 10770 = assay: MIC, antibacterial and synergistic activity; settings: E. coli JMI 10770, CTX-M15 (Hyper ESBL); substance alone
K. pneumo JMI 2674 = assay: MIC, antibacterial and synergistic activity; settings: K. pneumo JMI 2674, CTX-M15 (ESBL); substance alone
K. pneumo JMI 4106 = assay: MIC, antibacterial and synergistic activity; settings: substance alone
P. aerug JMI 2686 = assay: MIC, antibacterial and synergistic activity; settings: substance alone
E. coli JMI 11103 = assay: MIC, antibacterial and synergistic activity; settings: substance alone
K. pneumo JMI 2697 = assay: MIC, antibacterial and synergistic activity; settings: K. pneumo JMI 2697, IMP-4 (Cpase); substance alone
Protocol: as §1

E. coli JMI 2692 = assay: MIC, antibacterial and synergistic activity; settings: Escherichia coli, JMI2692; E. coli JMI 2692, NDM-1, TEM-1, CTX-M-15; substance alone
Protocol: as §1

E. coli JMI 10767 = assay: MIC, antibacterial and synergistic activity; settings: E. coli JMI 10767, Wt; substance alone
Protocol: as §1

K. pneumo JMI 2693 = assay: MIC, antibacterial and synergistic activity; settings: K. pneumo JMI 2693, NDM-1 (Cpase); substance alone
Protocol: as §1

E. coli ATCC 25922 = assay: MIC, antibacterial and synergistic activity; settings: Escherichia coli, ATCC25922, E. coli ATCC 25922, enzyme Wt; substance alone
Protocol: as §1

P. aerug JMI 149 = assay: MIC, antibacterial and synergistic activity; settings: substance alone
Protocol: as §1

A. baumanii JMI 2659 = assay: MIC, antibacterial and synergistic activity; settings: Acinetobacter baumannii, JMI2659, substance alone
Protocol: as §1

K. pneumo JMI 2681 = assay: MIC, antibacterial and synergistic activity; settings: substance alone
[2] = K. pneumo JMI 4088, KPC-3 (Cpase)
[3] = Enterobacter cloacae, Enterobacter cloacae isolate 25, IMP-4
[4] = Enterobacter cloacae, Enterobacter cloacae isolate 1280, VIM-5
[5] = Enterobacter cloacae, Enterobacter cloacae isolate 1471, VIM-1
[6] = Enterobacter cloacae, Enterobacter cloacae isolate 1874, IMP-21
[7] = Enterobacter cloacae, Enterobacter cloacae isolate 3686, IMP-1
[8] = Escherichia coli, Escherichia coli isolate 13, IMP-1
[9] = Klebsiella aerogenes, Enterobacter aerogenes isolate 47683, VIM-12
[10] = Klebsiella oxytoca, Klebsiella oxytoca isolate 31141, VIM-23
[11] = Klebsiella pneumoniae, Klebsiella pneumoniae isolate 38, NDM-1
[12] = Providencia stuartii, Providencia stuartii isolate 26582, VIM-1
[13] = K. pneumo JMI 4106, KPC-3, TEM-1, SHV-12, SHV-141
[14] = P. aerug JMI 2686, KPC-2 (Cpase)
[15] = Citrobacter freundii, Citrobacter freundii isolate 49469, NDM-1
[16] = Enterobacter cloacae, Enterobacter cloacae isolate 4, VIM-6
[17] = Enterobacter cloacae, Enterobacter cloacae isolate 10, IMP-26
[18] = Enterobacter cloacae, Enterobacter cloacae isolate 1068, VIM-2
[19] = Enterobacter cloacae, Enterobacter cloacae isolate 53477, NDM-1
[20] = Escherichia coli, Escherichia coli isolate 17, NDM-1
[21] = Escherichia coli, Escherichia coli isolate 49, NDM-1
[22] = Escherichia coli, Escherichia coli isolate 53749, NDM-1
[23] = Klebsiella aerogenes, Enterobacter aerogenes isolate 8397, VIM-1
[24] = Klebsiella oxytoca, Klebsiella oxytoca isolate 24825, IMP-26
[25] = Klebsiella pneumoniae, Klebsiella pneumoniae isolate 16, VIM-5
[26] = Serratia marcescens, Serratia marcescens isolate 35, IMP-4
[27] = Serratia marcescens, Serratia marcescens isolate 36098, IMP-19

## C[C@H]1[C@H](NC(=O)/C(=N\OC(C)(C)C(=O)O)c2csc(N)n2)C(=O)N1S(=O)(=O)O [Aztreonam, aztreonam]
E. coli JMI 4080
  MIC: 64 µg/mL
K. pneumo JMI 4088; [2]
  MIC: > 512 µg/mL
  MIC alone: 512 µg/mL
K. pneumo JMI 4088; K. pneumo JMI 4088, enzyme KPC-3 (Cpase)
  MIC alone: 512 µg/mL
E. coli JMI 10768
  MIC alone: 8 µg/mL
[1]; [3]
  MIC: 64 µg/mL
[1]; [4]
  MIC: 8 µg/mL
[1]; [5]
  MIC: 64 µg/mL
[1]; [6]
  MIC: ≤ 0.12 µg/mL
[1]; [7]
  MIC: 32 µg/mL
[1]; [8]
  MIC: 16 µg/mL
[1]; [9]
  MIC: 4 µg/mL
[1]; [10]
  MIC: 8 µg/mL
[1]; [11]
  MIC: 64 µg/mL
[1]; [12]
  MIC: 32 µg/mL
E. coli JMI 4103
  MIC: > 512 µg/mL
E. coli JMI 10770
  MIC alone: 64 µg/mL
K. pneumo JMI 2674
  MIC alone: 32 µg/mL
K. pneumo JMI 4106; [13]
  MIC: > 512 µg/mL
  MIC alone: 512 µg/mL
K. pneumo JMI 4106; K. pneumo JMI 4106, enzyme KPC-3, TEM-1, SHV-12, SHV-141
  MIC alone: 512 µg/mL
P. aerug JMI 2686; [14]
  MIC: 512 µg/mL
  MIC alone: >512 µg/mL
P. aerug JMI 2686; P. aerug JMI 2686, enzyme KPC-2 (Cpase)
  MIC: 512 µg/mL
E. coli JMI 11103; E. coli JMI 11103, CTX-M15 (Intermediate ESBL)
  MIC alone: 16 µg/mL
E. coli JMI 11103; Escherichia coli, JMI11103, E. coli JMI 11103, CTX-M15 (Intermediate ESBL)
  MIC: 32 µg/mL
K. pneumo JMI 2697
  MIC: > 512 µg/mL
E. coli JMI 2692
  MIC: > 512 µg/mL
E. coli JMI 10767
  MIC alone: ≤1 µg/mL
K. pneumo JMI 2693
  MIC: > 512 µg/mL
E. coli ATCC 25922
  MIC: 0.25 µg/mL
P. aerug JMI 149; P. aerug JMI 149, Bla+++D+
  MIC alone: 512 µg/mL
P. aerug JMI 149; P. aerug JMI 149, enzyme Bla+++D+
  MIC: 512 µg/mL
A. baumanii JMI 2659; A. baumanii JMI 2659, Ges-14 (Cpase)
  MIC: 512 µg/mL
A. baumanii JMI 2659; A. baumanii JMI 2659, enzyme Ges-14 (Cpase)
  MIC: 512 µg/mL
K. pneumo JMI 2681; K. pneumo JMI 2681, Oxa-48 (Cpase)
  MIC: 512 µg/mL
K. pneumo JMI 2681; K. pneumo JMI 2681, enzyme Oxa-48 (Cpase)
  MIC: 512 µg/mL

## O=C(NO[C@H]1CCNC1)[C@@H]1CC[C@@H]2CN1C(=O)N2OS(=O)(=O)O [Ex. 2, (2S,5R)-7-Oxo-N-[(3S)-pyrrolidin-3-yloxy]-6-(sulfooxy)-1,6-diazabicyclo[3.2.1]octane-2-carboxamide]
[1]; [15]
  MIC: > 64 µg/mL
[1]; [16]
  MIC: 64 µg/mL
[1]; [17]
  MIC: 64 µg/mL
[1]; [3]
  MIC: 8 µg/mL
[1]; [18]
  MIC: 8 µg/mL
[1]; [4]
  MIC: 4 µg/mL
[1]; [5]
  MIC: 4 µg/mL
[1]; [6]
  MIC: 4 µg/mL
[1]; [7]
  MIC: 4 µg/mL
[1]; [19]
  MIC: 4 µg/mL
[1]; [8]
  MIC: 16 µg/mL
[1]; [20]
  MIC: 4 µg/mL
[1]; [21]
  MIC: 4 µg/mL
[1]; [22]
  MIC: 4 µg/mL
[1]; [23]
  MIC: > 64 µg/mL
[1]; [9]
  MIC: > 64 µg/mL
[1]; [24]
  MIC: > 64 µg/mL
[1]; [10]
  MIC: > 64 µg/mL
[1]; [25]
  MIC: > 64 µg/mL
[1]; [11]
  MIC: > 64 µg/mL
[1]; [12]
  MIC: > 64 µg/mL
[1]; [26]
  MIC: > 64 µg/mL
[1]; [27]
  MIC: > 64 µg/mL

## O=C(NO[C@H]1CCCNC1)[C@@H]1CC[C@@H]2CN1C(=O)N2OS(=O)(=O)O [Ex. 4, (2S,5R)-7-Oxo-N-[(3S)-piperidin-3-yloxy]-6-(sulfooxy)-1,6-diazabicyclo[3.2.1]octane-2-carboxamide]
[1]; [15]
  MIC: > 64 µg/mL
[1]; [16]
  MIC: 64 µg/mL
[1]; [17]
  MIC: 64 µg/mL
[1]; [3]
  MIC: 4 µg/mL
[1]; [18]
  MIC: 4 µg/mL
[1]; [4]
  MIC: 4 µg/mL
[1]; [5]
  MIC: 4 µg/mL
[1]; [6]
  MIC: 2 µg/mL
[1]; [7]
  MIC: 4 µg/mL
[1]; [19]
  MIC: 8 µg/mL
[1]; [8]
  MIC: 2 µg/mL
[1]; [20]
  MIC: 2 µg/mL
[1]; [21]
  MIC: 2 µg/mL
[1]; [22]
  MIC: 2 µg/mL
[1]; [23]
  MIC: > 64 µg/mL
[1]; [9]
  MIC: > 64 µg/mL
[1]; [24]
  MIC: > 64 µg/mL
[1]; [10]
  MIC: > 64 µg/mL
[1]; [25]
  MIC: > 64 µg/mL
[1]; [11]
  MIC: > 64 µg/mL
[1]; [12]
  MIC: > 64 µg/mL
[1]; [26]
  MIC: > 64 µg/mL
[1]; [27]
  MIC: > 64 µg/mL

## CC(=O)NNC(=O)[C@@H]1CC[C@@H]2CN1C(=O)N2OS(=O)(=O)O [Ex. 40, (2S,5R)-N′-acetyl-7-oxo-6-(sulfooxy)-1,6-diazabicyclo[3.2.1]octane-2-carbohydrazide]
[1]; [15]
  MIC: > 64 µg/mL
[1]; [16]
  MIC: 61 µg/mL
[1]; [17]
  MIC: 61 µg/mL
[1]; [3]
  MIC: 4 µg/mL
[1]; [18]
  MIC: 4 µg/mL
[1]; [4]
  MIC: 4 µg/mL
[1]; [5]
  MIC: 2 µg/mL
[1]; [6]
  MIC: 2 µg/mL
[1]; [7]
  MIC: 2 µg/mL
[1]; [19]
  MIC: 2 µg/mL
[1]; [8]
  MIC: 1 µg/mL
[1]; [20]
  MIC: 2 µg/mL
[1]; [21]
  MIC: 2 µg/mL
[1]; [22]
  MIC: 2 µg/mL
[1]; [23]
  MIC: > 64 µg/mL
[1]; [9]
  MIC: > 64 µg/mL
[1]; [24]
  MIC: > 64 µg/mL
[1]; [10]
  MIC: > 64 µg/mL
[1]; [25]
  MIC: > 64 µg/mL
[1]; [11]
  MIC: > 64 µg/mL
[1]; [12]
  MIC: > 64 µg/mL
[1]; [26]
  MIC: > 64 µg/mL
[1]; [27]
  MIC: > 64 µg/mL
